From paper PMC8226722, “Comparison of Solution Chemical Properties and Biological Activity of Ruthenium Complexes of Selected β-Diketone, 8-Hydroxyquinoline and Pyrithione Ligands” (Pharmaceuticals, 2021)

Experiments:
[1] = test system: Klebsiella pneumoniae ATCC 49619; experiment: MIC determination (CLSI broth microdilution); assay type: cell-based; conditions: Gram-negative, ATCC 49619, 18 h
Method: (§1) Wild-type Escherichia coli K-12 AG100 strain [argE3 thi-1 rpsL xyl mtl Δ(gal-uvrB) supE44] expressing the AcrAB TolC EP at its basal level and Klebsiella pneumoniae ATCC 49,619 Gram-negative strains were studied in the experiments. Staphylococcus aureus ATCC 43,300 methicillin-resistant (MRSA) strain and Enterococcus faecalis ATCC 29,212 strain were used as Gram-positive strains in the assays. MIC values of the complexes were determined in 96-well plates based on the Clinical and Laboratory Standard Institute guidelines (CLSI guidelines). The stock solutions of the compounds (dissolved in DMSO using 10 mM concentration) were diluted in 100 μL of Mueller Hinton Broth. Then 10^−4 dilution of an overnight bacterial culture in 100 μL of medium was added to each well, with the exception of the medium control wells.

[2] = test system: Enterococcus faecalis ATCC 29212; experiment: MIC determination (CLSI broth microdilution); assay type: cell-based; conditions: Gram-positive, ATCC 29212, 18 h
Method: as §1

[3] = test system: Escherichia coli K-12 AG100; experiment: MIC determination (CLSI broth microdilution); assay type: cell-based; conditions: Gram-negative, AG100, 18 h
Method: as §1

[4] = test system: Staphylococcus aureus ATCC 43300 methicillin-resistant (MRSA); experiment: MIC determination (CLSI broth microdilution); assay type: cell-based; conditions: Gram-positive, MRSA ATCC 43300, 18 h
Method: as §1

[5] = test system: Colo 205 chemo-sensitive human colonic adenocarcinoma cell line; experiment: MTT cytotoxicity assay, Colo 205; assay type: cell-based; conditions: for IC50: 72 h, MTT; for S.I. MRC-5/Colo 205: ratio of the indicated IC50 values
Method: (§2) Human colonic adenocarcinoma cell lines Colo 205 doxorubicin-sensitive (ATCC-CCL-222) and Colo 320/MDR-LRP multidrug resistant expressing ABCB1 (MDR1)-LRP (ATCC-CCL-220.1) were purchased from LGC Promochem (Teddington, UK). […] Cell lines were incubated at 37 °C, in a 5% CO2, 95% air atmosphere. The semi-adherent human colon cancer cells were detached with Trypsin-Versene (EDTA, Sigma, Steinheim, Germany) solution for 5 min at 37 °C. MRC-5 human embryonal lung fibroblast cell lines (ATCC CCL-171) were purchased from LGC Promochem. […] The cell lines were incubated at 37 °C, in a 5% CO2, 95% air atmosphere.
(§3) In the study MRC-5 non-cancerous human embryonic lung fibroblast and human colonic adenocarcinoma cell lines (doxorubicin-sensitive Colo 205 and multidrug resistant Colo 320 colonic adenocarcinoma cells) were used to determine the effect of compounds on cell growth. The effects of increasing concentrations of compounds on cell growth were tested in 96-well flat-bottomed microtiter plates. The stock solutions of the compounds were prepared in DMSO, and in the final samples the DMSO content was always lower than 1%. The compounds were diluted in a volume of 100 μL of medium.
(§4) In case of the colonic adenocarcinoma cells, the two-fold serial dilutions of compounds were prepared in 100 μL of RPMI 1640, horizontally. The semi-adherent colonic adenocarcinoma cells were treated with Trypsin-Versene (EDTA) solution. They were adjusted to a density of 1 × 10^4 cells in 100 μL of RPMI 1640 medium, and were added to each well, with the exception of the medium control wells. The final volume of the wells containing compounds and cells was 200 μL.
(§5) The culture plates were incubated at 37 °C for 72 h; at the end of the incubation period, 20 μL of MTT (Sigma) solution (from a stock solution of 5 mg/mL) were added to each well. After incubation at 37 °C for 4 h, 100 μL of sodium dodecyl sulfate (SDS) (Sigma) solution (10% in 0.01 M HCl) were added to each well and the plates were further incubated at 37 °C overnight. Cell growth was determined by measuring the optical density (OD) at 540/630 nm with Multiscan EX ELISA reader (Thermo Labsystems, Cheshire, WA, USA). […] Curves were fitted by Prism software (GraphPad Software Inc., San Diego, CA, USA) using the sigmoidal dose-response model (comparing variable and fixed slopes). The IC50 values were obtained from at least 3 independent experiments.

[6] = test system: Colo 320 multidrug resistant human colonic adenocarcinoma cell line; experiment: MTT cytotoxicity assay, Colo 320; assay type: cell-based; conditions: for IC50: 72 h, MTT; for S.I. MRC-5/Colo 320: ratio of the indicated IC50 values
Method: as §2, §3, §4, §5

[7] = UV-vis interaction with 1-methylimidazole, monodentate binding model of HSA; conditions: pH 7.4, 102 mM chloride
Method: In our previous work, the fast interaction of complexes 7 and 8 with thiol-containing low molecular mass endogenous compounds Cys, N-acetylcysteine and glutathione was found on the basis of a mass spectrometry study. The donor atoms generally coordinate at the site of the monodentate co-ligand, however, they can also displace the weakly bound bidentate ligand as well. Herein, interaction of the complexes 1–4 towards 1-methylimidazole (mim), a monodentate binding model of HSA was measured by UV-vis (Figure 7d–f).
The reactions in all cases were very fast (except complex 2 and 4), and the observed spectral changes were similar to those obtained with HSA (Figure 7a–c). There was no indication for the replacement of the bidentate ligand by 1-methylimidazole. Considering that the latter ligand binds at the coordination site of the co-ligand, maximum one complex is able to be bound to 1-methylimidazole. However, the constant spectra upon addition of 1-methylimidazole to the complex 4 could only be reached at high excess of 1-methylimidazole due to its lower tendency to interact with this model (and with HSA as well). Based on these spectral changes, conditional binding constants were calculated for the formation of the 1-methylimidazole adducts. […] The protecting role of PTA in ligand-exchange processes for the complex pair 7 and 8 was also reported regarding their interaction with thiols or protein NCp7 [46, 47].

[8] = test system: MRC-5 normal human embryonal lung fibroblast cells; experiment: MTT cytotoxicity assay, MRC-5; assay type: cell-based; conditions: 72 h
Method: as §2, §3, §4, §5

Row | Compound | MIC K. pneumoniae [1] | MIC E. faecalis [2] | MIC E. coli [3] | MIC S. aureus [4] | IC50 [5] | S.I. MRC-5/Colo 205 [5] | IC50 [6] | S.I. MRC-5/Colo 320 [6] | LogK’ conditional binding constant of 1-methylimidazole adduct [7] | IC50 [8]
1 | C1N2CN3CN1CP(C2)C3.Cc1ccc(C(C)C)cc1.F[P-](F)(F)(F)(F)F.[O-]n1ccc2ccccc2c1=S.[Ru+2] [complex 4] | >100 µM | >100 µM | >100 µM | >100 µM | > 100 µM | <0.81 | > 100 µM | <0.81 | 3.64 ± 0.02 | 
2 | C1N2CN3CN1CP(C2)C3.Cc1ccc(C(C)C)cc1.F[P-](F)(F)(F)(F)F.[O-]n1ccccc1=S.[Ru+2] [complex 2] | >100 µM | >100 µM | >100 µM | >100 µM | > 100 µM |  | > 100 µM |  |  | > 100 µM
3 | Cc1ccc(C(C)C)cc1.[Cl-].[O-]n1ccc2ccccc2c1=S.[Ru+2] [complex 3] | >100 µM | 12.5 µM | >100 µM | 12.5 µM | 17.3 ± 3.1 µM | 0.44 | 10.7 ± 1.5 µM | 0.71 | 4.18 ± 0.27 | 7.6 ± 1.6 µM
4 | C1N2CN3CN1CP(C2)C3.Cc1ccc(C(C)C)cc1.F[P-](F)(F)(F)(F)F.O=C(C=C([O-])C(F)(F)F)c1ccc(Cl)cc1.[Ru+2] [complex 8] | >100 µM | 100 µM | >100 µM | 50 µM | 80.6 ± 1.1 µM | 0.22 | 47.8 ± 7.3 µM | 0.37 |  | 17.6 ± 1.5 µM
5 | Cc1ccc(C(C)C)cc1.[Cl-].[O-]n1ccccc1=S.[Ru+2] [complex 1] | >100 µM | 100 µM | >100 µM | 50 µM | 14 ± 0.62 µM | 0.15 | 3.3 ± 1.3 µM | 0.66 | 4.16 ± 0.45 | 2.17 ± 0.22 µM
6 | Cc1ccc(C(C)C)cc1.O=C(C=C([O-])C(F)(F)F)c1ccc(Cl)cc1.[Cl-].[Ru+2] [complex 7] | >100 µM | 50 µM | >100 µM | 50 µM | 52.4 ± 2.7 µM | 0.51 | 29.1 ± 2 µM | 0.91 |  | 26.5 ± 3.2 µM
